{
  "source": "patent EP0652290A1",
  "about": "“Method for regulation of NF-kB” (YISSUM RESEARCH DEVELOPMENT COMPANY OF THE HEBREW …, priority 1993, dated 1995)",
  "key": {"NF-κB [1]": {"system": "NF-κB", "test": "NF-κB activation by EMSA, Jurkat cells stimulated with TNF-α", "format": "cell-based", "settings": "for IC90: Homo sapiens, Jurkat cells, 30 min pretreatment, stimulated by TNF-α, EMSA, read-out: IC90, 90% inhibitory concentration, activation of NF-κB, Jurkat; for induction of NF-κB DNA-binding activity in response to PMA and TNF-α: Jurkat (TNF-α) and 70Z/3 (PMA) cell cultures, even at high concentrations", "description": "The functional significance of the inducible decay of IκBα for activation of NF-κB was tested by exposure of cell cultures to various protease inhibitors. Six distinct serine protease inhibitors with chymotrypsin-like specificity efficiently prevent the induction of NF-κB DNA-binding activity in response to PMA and TNF-α (Table 1). Constitutive DNA-binding activities, including Oct-1, were not affected and no significant cell death was observed by a dye-exclusion assay and phase-contrast microscopy at inhibitor concentrations preventing […] activation. Leupeptin, antipain and the trypsin inhibitor tosyl-Lys-methylester were not effective, even at high concentrations."}, "NF-κB [2]": {"system": "NF-κB", "test": "NF-κB activation by EMSA, 70Z/3 cells stimulated with PMA, IL-1β or LPS", "format": "cell-based", "settings": "for IC90: 30 min pretreatment, stimulated by PMA, EMSA, read-out: IC90, 90% inhibitory concentration, activation of NF-κB, 70Z/3; for induction of NF-κB activity in response to PMA: 25 µM"}, "70Z/3 cells": {"system": "70Z/3 cells", "test": "Inhibition of protein synthesis in 70Z/3 cells", "format": "cell-based", "settings": "read-out: protein synthesis is inhibited", "description": "70Z/3 cells were treated with 25 µg/ml cycloheximide (Sigma). The protein synthesis inhibitor cycloheximide (CHX) activates NF-κB in 70Z/3 cells. At 10 µg/ml, protein synthesis is inhibited to 90% in 70Z/3 cells. Cell culture, extract preparation, EMSA, SDS-PAGE and Western blotting were as described above in Example 1. Densitometric scanning was done with a Howtek Scanmaster 3 and data analyzed by the software Quantity One Version 2.2."}, "IκBα [3]": {"system": "IκBα", "test": "IκBα level and stability by Western blot in 70Z/3 cells", "format": "cell-based"}, "NF-κB [4]": {"system": "NF-κB", "test": "HIV-LTR-Luc reporter activity in Jurkat cells", "format": "cell-based", "settings": "stimulated 8 hours, PMA 10 ng/ml", "description": "Jurkat cells were stimulated with the following reagents: (P), PMA (phorbol-12 myrislated 13-acetate), 10 ng/ml; (I), A23187 Ca⁺⁺ ionophore, 1µM; (3), anti-CD3 (OKT3), 5µg/ml; (28) anti-CD28 (monoclonal antibody 9.3), 3 µg/ml; (P/I), PMA + Ca⁺⁺ ionophore in IκBα transfected Jurkat cells; (NS) non-stimulated (0.1%, DMSO only).\nThe steps involved in the activation of NF-κB, include IκBα elimination through the appearance of the nuclear DNA binding activity, and the transcriptional activity. NF-κB activation was measured through the reporter activity of the HIV-LTR promoter, which is largely controlled by NF-κB in conjunction with the HIV Tat protein (Nabel, G., et al., Nature, 326:711-713, 1987). Jurkat cells were stimulated with the following reagents: (P), PMA (phorbol-12 myrislated 13-acetate), 10 ng/ml; (I), A23187 Ca⁺⁺ ionophore, 1µM; (3), anti-CD3 (OKT3), 5µg/ml; (28) anti-CD28 (monoclonal antibody 9.3), 3 µg/ml; (P/I), PMA + Ca⁺⁺ ionophore in IκBα transfected Jurkat cells; (NS) non-stimulated (0.1%, DMSO only). Jurkat cells were transfected by electroporation (Su, B., et al., supra) with 1 µg HIV-LTR-LUC (Israel, S., et al., Gene, 104:139-145, 1991) and 4 µg PBC-TAT. […] Following 30 hours transfection, the cells were stimulated for 8 hours and luciferase activity was determined using the Promega luciferase assay system."}, "NF-κB [5]": {"system": "NF-κB", "test": "NF-κB activation by TNF-α in various other cell lines", "format": "cell-based", "settings": "various other cells lines"}, "IκBα [6]": {"system": "IκBα", "test": "IκBα phosphorylation and degradation by Western blot, Jurkat cells stimulated with PMA and Ca⁺⁺ ionophore", "format": "cell-based", "settings": "25 µM TPCK or 400 ng/ml CsA 30 min, 100 µM PDTC 1 hour before PMA + Ca⁺⁺ ionophore", "description": "Subcellular protein extracts were prepared essentially according to Beg, A.A. et al., supra. Following 20 minutes stimulation of Jurkat cells, cytosolic extracts (50 µg/point) were analyzed by Western blot, and nuclear extracts (5 µg/point) by EMSA, as described (Henkel, T., et al., Nature, 365:182-185, 1993).\nRabbit anti-IκBα was prepared against the GST-IκBα fusion protein by standard methods. The specifity of the antibodies was confirmed in competition assays using recombinant IκBα protein.\nOn the basis of the results in Example 3, phosphorylation of IκBα, in parallel to NF-κB activation, is induced according to the physiological requirements for T cell activation. Cell stimulation and extract preparation was as described above. […] Duration of Jurkat cell stimulation with PMA (10 ng/ml) and Ca⁺⁺ ionophore (1µM) was determined by Western blot analysis. […]\nN-acetyl-Leu-Leu-Norleucinal (AcLLnL) is a reversible non-alkylating proteosome inhibitor not likely to disturb post-translation modification events. […] Anti-Rel A serum was a rabbit polyclonal antiserum prepared against the C-terminus portion of Rel A. In FIGURE 6a, cells were pretreated for 4 hours with 50 µg/ml AcLLnL, stimulated with PMA (10 ng/ml) and Ca⁺⁺ ionophore (1 µM) for the time intervals indicated and analyzed by Western blot. […]"}, "IκBα [7]": {"system": "IκBα", "test": "IκB degradation by Western blot in HeLa S3 or Hep G2 cells after TNFα, IL-1 or PMA", "format": "cell-based, Human", "settings": "HeLa S3 or Hep G2, 4 hours pretreatment, 20 minutes", "description": "Human HeLa S3 or Hep G2 cells were pretreated for 4 hours with the indicated peptide aldehyde prior to simulation with either TNFα (20ng/ml), IL-1(20 ng/ml) or PMA (100 µg/ml). The cells were harvested 20 minutes after induction and the extent of IκB degradation was examined via Western blot analysis using IκB specific antisera. FIGURE 7 summarizes the ability of related peptide aldehydes to block IκB degradation induced by a variety of agents which activate NF-κB. (+++) indicates greater than 85% inhibition, (++) indicates greater than 60% inhibition and (-) indicates no inhibition of IκB degradation was observed."}, "NF-κB [8]": {"system": "NF-κB", "test": "Dose response of NF-κB DNA binding (EMSA) in Hela cells stimulated with TNFα", "format": "cell-based", "description": "Hela cells were pretreated for 5 hours with the indicated concentration of peptide aldehyde inhibitor or left untreated and then stimulated with TNFα (15ng/ml) for 20 minutes. The cells were then harvested for whole cell extract preparation. Extracts were analyzed for NF-κB DNA binding activity by electrophoretic mobility shift assay (EMSA) and relative IκBα protein levels were measured by Western blot analysis as shown in FIGURE 9.\nIC₅₀ for ZLLF was 3.4 µM and 12.1 µM for AcLLnL."}},
  "note": "Where a SMILES comes first, the peptide text is derived from it. The star is where a group is joined. Cbz = O=C(OCc1ccccc1)*; CH2Cl = ClC*",
  "data": [
    {"molecule": "CC(=O)NC(Cc1ccccc1)C(=O)Oc1ccc2ccccc2c1", "note": "(racemic) [N-Acetyl-DL-Phe-β-Naphthylester (APNE), N-Acetyl-DL-Phe-β-Naphthylester]", "values": [
      {"measurement": "IC90", "setting": "NF-κB [1]", "value": 200, "unit": "µM"}
    ]},
    {"molecule": "O=c1oc(Cl)c(Cl)c2ccccc12", "note": "[3,4-Dichloroisocoumarin]", "values": [
      {"measurement": "IC90", "setting": "NF-κB [1]", "value": 20, "unit": "µM"}
    ]},
    {"molecule": "CC(C)C[C@H](NC(=O)OCc1ccccc1)C(=O)N[C@@H](Cc1ccc(O)cc1)C(=O)CCl", "note": "[Benzyloxycarbonyl-Leu-Tyr-chloromethylketone] (Cbz-Leu-Tyr-CH2Cl)", "values": [
      {"measurement": "IC90", "setting": "NF-κB [2]; 70Z/3 cells", "value": 10, "unit": "µM"}
    ]},
    {"molecule": "C[C@@H]1C[C@@H]([C@H](O)CC2CC(=O)NC(=O)C2)C(=O)[C@@H](C)C1", "note": "[CHX, cycloheximide]", "values": [
      {"measurement": "inhibition at 10 µg/mL", "setting": "70Z/3 cells", "value": 90, "unit": "%"},
      {"measurement": "DNA binding of NF-κB", "setting": "NF-κB [2]; 1 hour treatment of 70Z/3 cells with CHX, no PMA", "value": "induced only weakly"},
      {"measurement": "half-life of IκBα", "setting": "IκBα [3]; CHX-treated 70Z/3 cells, 25 µg/ml, no PMA", "value": "approximately 138 minutes"}
    ]},
    {"molecule": "CC(=O)N[C@@H](CC(C)C)C(=O)N[C@@H](CC(C)C)C(=O)N[C@H](C=O)CCCNC(=N)N", "note": "[Leupeptin]", "values": [
      {"measurement": "induction of NF-κB DNA-binding activity in response to PMA and TNF-α", "setting": "NF-κB [1]", "value": "not effective"}
    ]},
    {"molecule": "CCOC(=O)[C@H](Cc1ccc(O)cc1)NC(=O)c1ccccc1", "note": "[N-Benzoyl-L-Tyr-ethylester (BTEE), N-Benzoyl-L-Tyr-ethylester]", "values": [
      {"measurement": "IC90", "setting": "NF-κB [1]", "value": 1000, "unit": "µM"}
    ]},
    {"molecule": "CCCCCCCCCCCCCC(=O)O[C@@H]1[C@@H](C)[C@@]2(O)[C@@H](C=C(CO)C[C@]3(O)C(=O)C(C)=C[C@@H]23)[C@@H]2C(C)(C)[C@]12OC(C)=O", "note": "[PMA, phorbol 12-myristate 13-acetate]", "values": [
      {"measurement": "enhancement of reporter activity (HIV-LTR-Luc) over basal", "setting": "NF-κB [4]", "value": "two-fold"},
      {"measurement": "time after stimulation until most of the IκBα had decayed", "setting": "IκBα [3]; 70Z/3 cells", "value": "≤ 5", "unit": "min"},
      {"measurement": "half-life of IκBα", "setting": "IκBα [3]; protein synthesis-arrested (CHX) 70Z/3 cells stimulated with PMA, phase of fastest decay", "value": 1.5, "unit": "min"}
    ]},
    {"molecule": "Cc1ccc(S(=O)(=O)NC(CCCCN)C(=O)CCl)cc1", "note": "(stereo not drawn) [TLCK, Tosyl-Lys-chloromethylketone]", "values": [
      {"measurement": "IC90", "setting": "NF-κB [1]", "value": 100, "unit": "µM"},
      {"measurement": "induction of NF-κB activity in response to PMA", "setting": "NF-κB [2]; 70Z/3 cells", "value": "could not prevent"},
      {"measurement": "IC90", "setting": "NF-κB [2]; 70Z/3 cells", "value": 100, "unit": "µM"}
    ]},
    {"molecule": "Cc1ccc(S(=O)(=O)N[C@@H](Cc2ccccc2)C(=O)CCl)cc1", "note": "[TPCK, Tosyl-Phe-chloromethylketone]", "values": [
      {"measurement": "IC90", "setting": "NF-κB [1]", "value": 20, "unit": "µM"},
      {"measurement": "activation of NF-κB by TNF-α", "setting": "NF-κB [5]", "value": "prevented"},
      {"measurement": "inducible degradation of IκBα", "setting": "IκBα [6]", "value": "blocked both the inducible modification and degradation of IκBα completely"},
      {"measurement": "inducible modification (phosphorylation) of IκBα", "setting": "IκBα [6]", "value": "blocked both the inducible modification and degradation of IκBα completely"},
      {"measurement": "induction of NF-κB activity in response to PMA", "setting": "NF-κB [2]; 70Z/3 cells", "value": "fully inhibited"},
      {"measurement": "IC90", "setting": "NF-κB [2]; 70Z/3 cells", "value": 20, "unit": "µM"},
      {"measurement": "NF-κB activity when added after stimulation", "setting": "NF-κB [2]; 70Z/3 cells, added after stimulation with PMA, IL-1 or LPS", "value": "did not strongly interfere"},
      {"measurement": "activation of NF-κB by IL-1β and LPS", "setting": "NF-κB [2]; 70Z/3 cells, treated 10 minutes before stimulation", "value": "prevented"},
      {"measurement": "decay of IκB-α in response to PMA", "setting": "IκBα [3]; 25 µM, 1 hour pretreatment, 70Z/3 cells", "value": "fully inhibited"}
    ]},
    {"molecule": "COC(=O)C(CCCCN)NS(=O)(=O)c1ccc(C)cc1.Cl", "note": "(stereo not drawn) [tosyl-Lys-methylester]", "values": [
      {"measurement": "induction of NF-κB DNA-binding activity in response to PMA and TNF-α", "setting": "NF-κB [1]", "value": "not effective"}
    ]},
    {"molecule": "benzyloxycarbonyl-Leu-Leu-Phenylalaninal [ZLLF]", "values": [
      {"measurement": "rank as inhibitor of proteolysis of IκBα", "setting": "IκBα [7]", "value": "the most potent inhibitor"},
      {"measurement": "TNFα induced NF-κB activity", "setting": "NF-κB [8]; 1µM to 200 µM, 5 hours pretreatment, TNFα 15ng/ml 20 minutes", "value": "inhibited TNFα induced NF-κB activity in a dose-dependent manner"},
      {"measurement": "IC50", "setting": "NF-κB [8]; densitometric scanning of the EMSA and Western blots, TNFα, read-out: IC₅₀", "value": 3.4, "unit": "µM"}
    ]}
  ]
}
